Laboratory results as given in patent US8871781B2, “Methods and compositions for treating a subject for a lymphatic malformation” (The Board of Trustees of the Leland Stanford Junior …, priority 2011, dated 2014).
“Also recorded” adds a separate entry of the source.

How the values were obtained:
Type in all cases: in vivo, human
lymphatic malformation [1] = assay: Clinical trial: MRI before and after 20 weeks of sildenafil; settings: for volume of the lymphatic malformation after 20 weeks: MRI; for decrease of the volume of the lymphatic malformation: over 20 weeks
Method: An additional 7 subjects were enrolled into a clinical trial. Sildenafil was administered substantially as described above in Examples 1-2. […] Three subjects completed the 20 week trial and had the follow up MRI completed; the remaining four subjects are still undergoing the trial.

lymphatic malformations = assay: Pilot study: sildenafil for 12 weeks in two children with disabling LMs
Method: Based on the observation of marked regression in a lymphatic malformation after starting sildenafil, a pilot study to treat otherwise healthy children with LMs with sildenafil was approved by the Stanford University Human Research Protection Program (IRB). After informed consent was obtained, sildenafil (goal dose 1.0 mg/kg/dose TID) was administered to two children with disabling LMs for 12 weeks, and results are summarized in Table 1.

lymphatic malformation [2] = assay: Index patient: infant with microcystic venolymphatic malformation given sildenafil for pulmonary hypertension
Description: FIG. 1, Panels A-B depict pre- and post-treatment magnetic resonance imaging (MRI) contrast-enhanced images of a subject with a lymphatic malformation treated in accord with the subject methods. […] Contrast highlights the heart with right ventricular enlargement (dashed arrow), aorta, and pulmonary vessels.
An infant was born with massive enlargement of their right chest and arm. […], the infant developed tachypnea due to congestive heart failure and pulmonary edema. […] At 9 months, cardiac catheterization confirmed the diagnosis of idiopathic pulmonary hypertension and sildenafil was started (initially 0.5 mg/kg/dose TID and titrated to 0.75 mg/kg/dose TID). […] The post-MRI course was complicated by worsening cardiopulmonary interactions, respiratory failure and subsequent cardiac failure leading to their death.

[3] = Subject 1, LM of left orbit, upper and lower eyelids
[4] = Subject 2, LM of right axilla, after 12 weeks of treatment (FIG. 3, Panel B)
[5] = Subject 2, LM of right axilla, chest
[6] = Subject 2, LM of right upper back

CCCc1nn(C)c2c(=O)[nH]c(-c3cc(S(=O)(=O)N4CCN(C)CC4)ccc3OCC)nc12 [sildenafil]
adverse events associated with the medication (lymphatic malformation [1]; 20 week trial): no adverse events | volume of the lymphatic malformation after 20 weeks (lymphatic malformation [1]; first subject evaluated, 186 cc before sildenafil): 174 cc | decrease of the volume of the lymphatic malformation (lymphatic malformation [1]; first subject evaluated, 186 cc to 174 cc): 6.45% | volume of the lymphatic malformation after 20 weeks (lymphatic malformation [1]; second subject evaluated, 46.5 cc before sildenafil): 42.7 cc | decrease of the volume of the lymphatic malformation (lymphatic malformation [1]; second subject evaluated, 46.5 cc to 42.7 cc): 8.17% | volume of the lymphatic malformation after 20 weeks (lymphatic malformation [1]; third subject evaluated, 56.246 cc before sildenafil): 51.732 cc | decrease of the volume of the lymphatic malformation (lymphatic malformation [1]; third subject evaluated, 56.246 cc to 51.732 cc): 8.03% | change of the lesion after stopping the medication (lymphatic malformations; Subject 1): enlargement of the lesion | Adverse effects (lymphatic malformations; Subject 1, 12 weeks of therapy): Loose yellow | clinical change of eyelid LM (lymphatic malformations; Subject 1, after 3 weeks of therapy): improved eye opening and definition of the upper eyelid fold and superior palpebral sulcus | improvement of LM (lymphatic malformations; Subject 1, at the end of treatment (12 weeks)): 25% | Change in LM 4 weeks after discontinuing therapy (lymphatic malformations; [3]): Enlargement | Parent impression of change in LM after 12 weeks of therapy (lymphatic malformations; [3]): Fair | Adverse effects (lymphatic malformations; Subject 2, 12 weeks of therapy): None | consistency of the lesion (lymphatic malformations; [4]): softer and saggier | reduction in diameter of the lesion (lymphatic malformations; [4]): 1 cm | improvement of LMs (lymphatic malformations; Subject 2, after 8 weeks of treatment): 50% | improvement of LMs (lymphatic malformations; Subject 2, after 12 weeks of treatment): 75% | appearance of the large LM affecting the back (lymphatic malformations; Subject 2, at the 12 week visit (FIG. 2, Panel C)): appeared deflated | change of the LMs after stopping the medication (lymphatic malformations; Subject 2, four weeks after stopping (FIG. 2, Panel D)): mild enlargement | Change in LM 4 weeks after discontinuing therapy (lymphatic malformations; Subject 2, LM of left forearm): Stable | Parent impression of change in LM after 12 weeks of therapy (lymphatic malformations; Subject 2, LM of left forearm): Good | Change in LM 4 weeks after discontinuing therapy (lymphatic malformations; [5]): Stable | Parent impression of change in LM after 12 weeks of therapy (lymphatic malformations; [5]): Good | Change in LM 4 weeks after discontinuing therapy (lymphatic malformations; [6]): Enlargement | Parent impression of change in LM after 12 weeks of therapy (lymphatic malformations; [6]): Good | tolerability (lymphatic malformations; two children, 12 weeks, goal dose 1.0 mg/kg/dose TID): tolerated without significant adverse effects | MRI finding of the malformation after therapy (lymphatic malformation [2]; cardiac MRI (FIG. 1, Panel B)): minimal residual lymphatic malformation; also recorded: near complete resolution of the malformation | role of sildenafil in the patient's death (lymphatic malformation [2]; death from respiratory and cardiac failure): not thought to play a role in their death | skin examination of the malformation (lymphatic malformation [2]; four months after starting sildenafil): thin, bluish plaque and redundant tissue | change in size of the malformation (lymphatic malformation [2]; sildenafil, 0.5 titrated to 0.75 mg/kg/dose TID): gradually decreased in size
